Measurements reported in patent US20240317780A1, “RADIOPHARMACEUTICAL SOMATOSTATIN RECEPTOR LIGANDS AND PRECURSORS THEREOF” (Technische Universität München, priority 2021, published 2024).

Each compound was assayed against T1, SST2 (Homo sapiens, UniProt P30874) (assay: Determination of IC50: competitive binding against [125I]TOC on SST2-transfected CHO cells). Conditions: [125I]TOC reference radioligand, 60 min room temperature.
T1 construct: expressed in transfected cells; host or cells: CHO (Chinese hamster ovary) cells
T1 sequence (P30874 whole entry, species assumed): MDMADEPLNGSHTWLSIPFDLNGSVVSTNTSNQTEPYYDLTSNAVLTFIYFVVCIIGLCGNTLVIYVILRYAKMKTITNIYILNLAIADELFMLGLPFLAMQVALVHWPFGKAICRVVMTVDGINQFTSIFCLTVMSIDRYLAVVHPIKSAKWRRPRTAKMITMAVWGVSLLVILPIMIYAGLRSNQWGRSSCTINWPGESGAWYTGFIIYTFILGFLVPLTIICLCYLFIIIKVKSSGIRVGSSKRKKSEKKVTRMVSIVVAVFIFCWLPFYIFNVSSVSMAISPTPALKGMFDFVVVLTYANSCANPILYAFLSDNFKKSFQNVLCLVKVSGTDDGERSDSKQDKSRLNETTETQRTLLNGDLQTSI
Experimental: The SST2-transfected CHO cells were cultivated in Dulbecco's Modified Eagle Medium/Nutrient Mixture F-12 (DMEM/F-12) with Glutamax-I (1:1) (Gibco), supplemented with 10% fetal calf serum (FCS) and maintained at 37° C. in a humidified 5% CO2 atmosphere. […] After removal of the culture medium, the cells were treated once with 300 μL of HBSS-B (Hank's balanced salt solution, Biochrom, Berlin, Germany, with addition of 1% bovine serum albumin (BSA)) and left with 200 μL HBSS-B. Next, 25 μL per well of solutions, containing either HBSS-B (control) or the respective ligand in increasing concentration (10^−10-10^−4 M in HBSS-B, were added with subsequent addition of 25 μL of
[^125I]TOC ([^125I]Tyr^3-Octreotide) (1.0 nM) in HBSS-B. Each concentration is investigated in triplicate. After 60 min incubation at room temperature, the experiment was terminated by removal of the assay medium and consecutive rinsing with 300 μL of cold PBS. The media of both steps were combined in one fraction and represent the amount of unbound radioligand.
Afterwards, the cells were lysed with 300 μL of 1 M NaOH and united with the 300 μL 1 M NaOH of the following wash step. Quantification of bound and unbound radioligand was accomplished in a γ-counter.

SMILES | IC50
C[C@@H](O)[C@H](NC(=O)C1CSSCC(NC(=O)C(Cc2ccccc2)NC(=O)[C@@H](CC(N)=O)NC(=O)C(CC(N)=O)NC(=O)[C@@H](CC(=O)O)NC(=O)C(CC(=O)O)NC(=O)[C@@H](CNC(=O)CN2CCN(CC(=O)O)CCN(CC(=O)O)CCN(CC(=O)O)CC2)NC(=O)C[N+](C)(C)Cc2ccc([Si](F)(C(C)(C)C)C(C)(C)C)cc2)C(=O)N[C@@H](Cc2ccc(O)cc2)C(=O)NC(Cc2c[nH]c3ccccc23)C(=O)N[C@@H](CCCCN)C(=O)N[C@@H]([C@@H](C)O)C(=O)N1)C(=O)O (stereo partly drawn) (natGa complex, metal not drawn) [[Ga]48] | 6.1 ± 0.57 nM
C[C@@H](O)[C@H](NC(=O)C1CSSCC(NC(=O)C(Cc2ccccc2)NC(=O)[C@@H](CC(N)=O)NC(=O)C(CC(N)=O)NC(=O)CNC(=O)C(CC(=O)O)NC(=O)[C@@H](CC(=O)O)NC(=O)C(CNC(=O)CN2CCN(CC(=O)O)CCN(CC(=O)O)CCN(CC(=O)O)CC2)NC(=O)C[N+](C)(C)Cc2ccc([Si](F)(C(C)(C)C)C(C)(C)C)cc2)C(=O)N[C@@H](Cc2ccc(O)cc2)C(=O)NC(Cc2c[nH]c3ccccc23)C(=O)N[C@@H](CCCCN)C(=O)N[C@@H]([C@@H](C)O)C(=O)N1)C(=O)O (stereo partly drawn) (natGa complex, metal not drawn) [[Ga]49] | 6.31 ± 0.99 nM
C[C@@H](O)[C@H](NC(=O)C1CSSCC(NC(=O)C(Cc2ccccc2)NC(=O)CNC(=O)CNC(=O)CNC(=O)C(CC(=O)O)NC(=O)[C@@H](CC(=O)O)NC(=O)C(CNC(=O)CN2CCN(CC(=O)O)CCN(CC(=O)O)CCN(CC(=O)O)CC2)NC(=O)[C@@H](CN)NC(=O)C[N+](C)(C)Cc2ccc([Si](F)(C(C)(C)C)C(C)(C)C)cc2)C(=O)N[C@@H](Cc2ccc(O)cc2)C(=O)NC(Cc2c[nH]c3ccccc23)C(=O)N[C@@H](CCCCN)C(=O)N[C@@H]([C@@H](C)O)C(=O)N1)C(=O)O (stereo partly drawn) (natGa complex, metal not drawn) [[Ga]51] | 3.56 ± 0.25 nM
C[C@@H](O)[C@H](NC(=O)C1CSSCC(NC(=O)C(Cc2ccccc2)NC(=O)CNC(=O)CNC(=O)CNC(=O)C(CC(=O)O)NC(=O)[C@@H](CC(=O)O)NC(=O)C(CNC(=O)CN2CCN(CC(=O)O)CCN(CC(=O)O)CCN(CC(=O)O)CC2)NC(=O)[C@@H](CN)NC(=O)CNC(=O)C[N+](C)(C)Cc2ccc([Si](F)(C(C)(C)C)C(C)(C)C)cc2)C(=O)N[C@@H](Cc2ccc(O)cc2)C(=O)NC(Cc2c[nH]c3ccccc23)C(=O)N[C@@H](CCCCN)C(=O)N[C@@H]([C@@H](C)O)C(=O)N1)C(=O)O (stereo partly drawn) (natGa complex, metal not drawn) [[Ga]52] | 3.69 ± 0.34 nM
C[C@@H](O)[C@H](NC(=O)C1CSSCC(NC(=O)C(Cc2ccccc2)NC(=O)CNC(=O)CNC(=O)CNC(=O)C(CC(=O)O)NC(=O)[C@@H](CC(=O)O)NC(=O)C(CNC(=O)CN2CCN(CC(=O)O)CCN(CC(=O)O)CCN(CC(=O)O)CC2)NC(=O)[C@@H](CN)NC(=O)CNC(=O)CNC(=O)C[N+](C)(C)Cc2ccc([Si](F)(C(C)(C)C)C(C)(C)C)cc2)C(=O)N[C@@H](Cc2ccc(O)cc2)C(=O)NC(Cc2c[nH]c3ccccc23)C(=O)N[C@@H](CCCCN)C(=O)N[C@@H]([C@@H](C)O)C(=O)N1)C(=O)O (stereo partly drawn) (natGa complex, metal not drawn) [[Ga]53] | 3.4 ± 0.18 nM
C[C@@H](O)[C@H](NC(=O)C1CSSCC(NC(=O)C(Cc2ccccc2)NC(=O)CNC(=O)CNC(=O)[C@@H](CC(=O)O)NC(=O)C(CC(=O)O)NC(=O)[C@@H](CNC(=O)CN2CCN(CC(=O)O)CCN(CC(=O)O)CCN(CC(=O)O)CC2)NC(=O)C(CN)NC(=O)c2ccc([Si](F)(C(C)(C)C)C(C)(C)C)cc2)C(=O)N[C@@H](Cc2ccc(O)cc2)C(=O)NC(Cc2c[nH]c3ccccc23)C(=O)N[C@@H](CCCCN)C(=O)N[C@@H]([C@@H](C)O)C(=O)N1)C(=O)O (stereo partly drawn) (natLu complex, metal not drawn) [[Lu]19] | 13.3 ± 1.97 nM
C[C@@H](O)[C@H](NC(=O)C1CSSCC(NC(=O)C(Cc2ccccc2)NC(=O)CNC(=O)CNC(=O)[C@@H](CC(=O)O)NC(=O)C(CC(=O)O)NC(=O)[C@@H](CNC(=O)CC[C@H](C(=O)O)N2CCN(CC(=O)O)CCN(CC(=O)O)CCN(CC(=O)O)CC2)NC(=O)C(CN)NC(=O)c2ccc([Si](F)(C(C)(C)C)C(C)(C)C)cc2)C(=O)N[C@@H](Cc2ccc(O)cc2)C(=O)NC(Cc2c[nH]c3ccccc23)C(=O)N[C@@H](CCCCN)C(=O)N[C@@H]([C@@H](C)O)C(=O)N1)C(=O)O (stereo partly drawn) (natLu complex, metal not drawn) [[Lu]20] | 11 ± 5.69 nM
C[C@@H](O)[C@H](NC(=O)C1CSSCC(NC(=O)C(Cc2ccccc2)NC(=O)CNC(=O)CNC(=O)[C@@H](CC(=O)O)NC(=O)C(CC(=O)O)NC(=O)[C@@H](CNC(=O)CN2CCN(CC(=O)O)CCN(CC(=O)O)CCN(CC(=O)O)CC2)NC(=O)C[N+](C)(C)Cc2ccc([Si](F)(C(C)(C)C)C(C)(C)C)cc2)C(=O)N[C@@H](Cc2ccc(O)cc2)C(=O)NC(Cc2c[nH]c3ccccc23)C(=O)N[C@@H](CCCCN)C(=O)N[C@@H]([C@@H](C)O)C(=O)N1)C(=O)O (stereo partly drawn) (natLu complex, metal not drawn) [[Lu]24] | 5.5 ± 0.76 nM
C[C@@H](O)[C@H](NC(=O)C1CSSCC(NC(=O)C(Cc2ccccc2)NC(=O)CNC(=O)CNC(=O)CNC(=O)C(CC(=O)O)NC(=O)[C@@H](CC(=O)O)NC(=O)C(CNC(=O)C[N+](C)(C)Cc2ccc([Si](F)(C(C)(C)C)C(C)(C)C)cc2)NC(=O)CN2CCN(CC(=O)O)CCN(CC(=O)O)CCN(CC(=O)O)CC2)C(=O)N[C@@H](Cc2ccc(O)cc2)C(=O)NC(Cc2c[nH]c3ccccc23)C(=O)N[C@@H](CCCCN)C(=O)N[C@@H]([C@@H](C)O)C(=O)N1)C(=O)O (stereo partly drawn) (natLu complex, metal not drawn) [[Lu]44] | 3.86 ± 0.23 nM
C[C@@H](O)[C@H](NC(=O)C1CSSCC(NC(=O)C(Cc2ccccc2)NC(=O)CNC(=O)CNC(=O)CNC(=O)C(CC(=O)O)NC(=O)[C@@H](CC(=O)O)NC(=O)C(CCCCN)NC(=O)[C@@H](CNC(=O)C[N+](C)(C)Cc2ccc([Si](F)(C(C)(C)C)C(C)(C)C)cc2)NC(=O)CN2CCN(CC(=O)O)CCN(CC(=O)O)CCN(CC(=O)O)CC2)C(=O)N[C@@H](Cc2ccc(O)cc2)C(=O)NC(Cc2c[nH]c3ccccc23)C(=O)N[C@@H](CCCCN)C(=O)N[C@@H]([C@@H](C)O)C(=O)N1)C(=O)O (stereo partly drawn) (natLu complex, metal not drawn) [[Lu]45] | 3.37 ± 0.35 nM
C[C@@H](O)[C@H](NC(=O)C1CSSCC(NC(=O)C(Cc2ccccc2)NC(=O)CNC(=O)CNC(=O)CNC(=O)C(CC(=O)O)NC(=O)[C@@H](CC(=O)O)NC(=O)C(CCCNC(N)=O)NC(=O)[C@@H](CNC(=O)C[N+](C)(C)Cc2ccc([Si](F)(C(C)(C)C)C(C)(C)C)cc2)NC(=O)CN2CCN(CC(=O)O)CCN(CC(=O)O)CCN(CC(=O)O)CC2)C(=O)N[C@@H](Cc2ccc(O)cc2)C(=O)NC(Cc2c[nH]c3ccccc23)C(=O)N[C@@H](CCCCN)C(=O)N[C@@H]([C@@H](C)O)C(=O)N1)C(=O)O (stereo partly drawn) (natLu complex, metal not drawn) [[Lu]46] | 4.07 ± 0.52 nM
C[C@@H](O)[C@H](NC(=O)C1CSSCC(NC(=O)C(Cc2ccccc2)NC(=O)CNC(=O)CNC(=O)CNC(=O)C(CC(=O)O)NC(=O)[C@@H](CC(=O)O)NC(=O)C(CCC(=O)O)NC(=O)[C@@H](CNC(=O)C[N+](C)(C)Cc2ccc([Si](F)(C(C)(C)C)C(C)(C)C)cc2)NC(=O)CN2CCN(CC(=O)O)CCN(CC(=O)O)CCN(CC(=O)O)CC2)C(=O)N[C@@H](Cc2ccc(O)cc2)C(=O)NC(Cc2c[nH]c3ccccc23)C(=O)N[C@@H](CCCCN)C(=O)N[C@@H]([C@@H](C)O)C(=O)N1)C(=O)O (stereo partly drawn) (natLu complex, metal not drawn) [[Lu]47] | 5.13 ± 0.51 nM
C[C@@H](O)[C@H](NC(=O)C1CSSCC(NC(=O)C(Cc2ccccc2)NC(=O)[C@@H](CC(N)=O)NC(=O)C(CC(N)=O)NC(=O)[C@@H](CC(=O)O)NC(=O)C(CC(=O)O)NC(=O)[C@@H](CNC(=O)CN2CCN(CC(=O)O)CCN(CC(=O)O)CCN(CC(=O)O)CC2)NC(=O)C[N+](C)(C)Cc2ccc([Si](F)(C(C)(C)C)C(C)(C)C)cc2)C(=O)N[C@@H](Cc2ccc(O)cc2)C(=O)NC(Cc2c[nH]c3ccccc23)C(=O)N[C@@H](CCCCN)C(=O)N[C@@H]([C@@H](C)O)C(=O)N1)C(=O)O (stereo partly drawn) (natLu complex, metal not drawn) [[Lu]48] | 5.5 ± 1.47 nM
C[C@@H](O)[C@H](NC(=O)C1CSSCC(NC(=O)C(Cc2ccccc2)NC(=O)[C@@H](CC(N)=O)NC(=O)C(CC(N)=O)NC(=O)CNC(=O)C(CC(=O)O)NC(=O)[C@@H](CC(=O)O)NC(=O)C(CNC(=O)CN2CCN(CC(=O)O)CCN(CC(=O)O)CCN(CC(=O)O)CC2)NC(=O)C[N+](C)(C)Cc2ccc([Si](F)(C(C)(C)C)C(C)(C)C)cc2)C(=O)N[C@@H](Cc2ccc(O)cc2)C(=O)NC(Cc2c[nH]c3ccccc23)C(=O)N[C@@H](CCCCN)C(=O)N[C@@H]([C@@H](C)O)C(=O)N1)C(=O)O (stereo partly drawn) (natLu complex, metal not drawn) [[Lu]49] | 4.47 ± 0.95 nM
C[C@@H](O)[C@H](NC(=O)C1CSSCC(NC(=O)C(Cc2ccccc2)NC(=O)CNC(=O)CNC(=O)CNC(=O)C(CC(=O)O)NC(=O)[C@@H](CC(=O)O)NC(=O)C(CNC(=O)CN2CCN(CC(=O)O)CCN(CC(=O)O)CCN(CC(=O)O)CC2)NC(=O)C[N+](C)(C)Cc2ccc([Si](F)(C(C)(C)C)C(C)(C)C)cc2)C(=O)N[C@@H](Cc2ccc(O)cc2)C(=O)NC(Cc2c[nH]c3ccccc23)C(=O)N[C@@H](CCCCN)C(=O)N[C@@H]([C@@H](C)O)C(=O)N1)C(=O)O (stereo partly drawn) (natLu complex, metal not drawn) [[Lu]50] | 3.72 ± 0.61 nM
